In article PMC5355302, “Arg-Leu-Tyr-Glu tetrapeptide inhibits tumor progression by suppressing angiogenesis and vascular permeability via VEGF receptor-2 antagonism” (Oncotarget, 2016):
Where a SMILES comes first, the peptide text is derived from it. Where no end group is shown, it is not given here.

Assays:
HUVECs [1] = test: MTT cell viability, HUVECs; assay type: cell-based, human; settings: 24 h
Protocol: (§1) Mouse melanoma B16F1 and B16F10 cells and human HCT116 colon cancer cells were obtained from American Type Culture Collection (Manassas, VA) and cultured in RPMI medium supplemented with 10% FBS, 1 mM sodium pyruvate, 10 mM 4-(2-hydroxyethyl)-1-piperazineethanesulfonic acid, and 100 U/ml penicillin-streptomycin in a humidified atmosphere of 5% CO2 at 37°C. Human umbilical vein endothelial cells (HUVECs) were maintained and cultured in M199 as described previously, and only passages 2-7 were used for all experiments. Human multiple myeloma IM-9 and RPMI 8226 cells were obtained from Korean Cell Line Bank (Seoul, Korea). The cells were cultured in RPMI-1640 medium in a humidified CO2 incubator. Cell viability or cytotoxicity was evaluated by 3-[4,5-cimethylthiazol-2-yl]-2,5-diphenyl tetrazolium bromide (MTT, Sigma-Aldrich) assay.
(§2) www.impactjournals.com/oncotarget/ Oncotarget, Supplementary Materials 2016
(§3) B. cells were treated the indicated concentration of RLYE for 24 h. Cell viability was determined by MTT assay. […]

HCT116 cells = test: MTT cell viability, HCT116 cells; assay type: cell-based, human; settings: up to 30 nM, 24 h
Protocol: as §1, §2, §3

half-life in blood = assay type: in vivo; settings: unpublished data
[2] = half-life in culture medium; assay type: in vitro ADME; settings: M199 culture medium with 10% heat-inactivated FBS; unpublished data
HCT116 tumors = test: HCT116 human colon cancer xenograft in nude mice; assay type: in vivo, mouse; settings: RLYE 0.5 mg/kg/day i.p., CPT-11 17 mg/kg every 5th day, alone or combined, n = 7 per group
Protocol: Figure 7 RLYE inhibits tumor growth and metastasis by suppressing tumor angiogenesis A. Representative tumors isolated from 29-days-old B16F1 tumor-bearing C57BL/6J mice injected i.p. with saline or RLYE (1 mg/kg) every day. B. Tumor weight on day 29 after injection of B16F1 cells (n = 10 mice per group). C. […] D. Representative images for metastatic nodules of the lungs isolated from C57BL/6J mice, which were injected i.v. with B16F10 melanoma cells and treated with saline or RLYE for 3 weeks. E. Quantification of the number of lung metastatic nodules. […] Representative tumors from 30-day-old HCT116 tumor-bearing mice. (G) Tumor burden was measured every 3 days (n = 8 mice per group). (H) Functional vascularization was quantified by measuring hemoglobin concentration in HCT116 tumor tissues (n = 5). […]
Figure 8 RLYE inhibits vascular leakage and enhances tumor chemosensitivity A. Endothelial cell permeability was determined by diffusion of [^14C]-sucrose through HUVEC monolayers treated with 20 ng/ml of VEGF alone or in combination with RLYE (n = 3). B. Phosphorylation of VE-cadherin was determined in cell lysates of HUVECs treated with 20 ng/ml of VEGF alone or in combination with RLYE. […] Immunostaining of VE-cadherin in endothelial monolayer was determined by confocal microscopy. […] Tumor vascular leakage was determined by the Evans blue method (E and F) or FITC-dextran image assay (G and H). […]

VEGFR-2 = settings: read-out: IC50 for VEGFR-2; endothelial cell culture conditions; cited from earlier work
VEGF-A [3] = settings: cited from earlier work
Excerpt: Therefore, the VEGF-A/VEGFR-2 system is widely considered a main target of the therapeutic treatment for tumor angiogenesis. Ligation of VEGFR-2 triggers strong proangiogenic signals including p38MAPK/ERK, Src/FAK, and Akt/eNOS through VEGFR-2 phosphorylation, which promote angiogenesis and VEGFR-2 internalization.

HUVECs [4] = test: FACS binding of FITC-conjugated RLYE to HUVECs; design: species or system human; settings: FITC-conjugated RLYE 15 nM, n = 5
Protocol: (§4) Figure 5 RLYE binds to endothelial cells through binding to VEGFR-2 A and B. HUVECs were incubated with FITC-conjugated RLYE (RL, 15 nM) before or after treatment with VEGF-A (VE, 100 ng) for 30 min. Cells were analyzed by flow cytometry (A) and quantified (B). Data are the means ± SD (n = 5). **P < 0.01 versus RLYE alone. C and D. HUVEC lysates were incubated with biotinylated RLYE (Bio-RLYE, 0.15 or 1.5 nM), followed by precipitation with streptavidin-agarose beads. The red arrow indicates VEGFR-2 protein bands on a longer exposure film. The precipitates were separated by SDS-PAGE. VEGFR-2 or VEGFR-1 expression was assessed by Western blot analysis. E. HUVECs were treated with or without VEGF-A (10 ng/ml) for 30 min, followed by incubation with FITC-conjugated RLYE (100 ng/ml, green). Cells were incubated with a TRITC-conjugated CD31 antibody (1:100, red) or DAPI (blue). Confocal microscopy was performed for analyzing binding of RLYE on HUVECs. Scale bar, 10 μm.
HUVECs cultured for 24 h after plating in 60 mm-culture dishes. Cells from subconfluent cultures were gently detached from wells with PBS containing 5 mM EDTA, washed three times with PBS, and resuspended in PBS containing 2% FBS/0.1% bovine serum albumin. Thereafter, they were incubated with FITC-conjugated RLYE (15 nM) before or after treatment with VEGF (100 ng/ml) for 30 min on ice, fixed in 2% paraformaldehyde, and analyzed by flow cytometry in a fluorescence-activated cell sorter (FACSCalibur, Becton Dickinson, Franklin Lakes, NJ).

HUVECs [5] = test: confocal microscopy of FITC-RLYE binding to HUVECs; design: species or system human
Protocol: as §4, with “Confocal microscopy was performed for analyzing binding of RLYE on HUVECs. Scale bar, 10 μm.” left out
For immunocytochemistry, HUVECs were grown to confluence on glass coverslips coated with 2% gelatin and treated with or without VEGF-A (10 ng/ml) for 30 min, followed by incubation with FITC-RLYE (100 ng/ml). […] Images were photographed and analyzed using a confocal fluorescence microscope. Nuclear staining was performed with 4’, 6-diamidino-2-phenylindole (DAPI, 1 ng/ml), and apoptotic cells were detected using a terminal deoxynucleotidyl transferase dUTP nick end labeling (TUNEL) kit (Roche, Korea).

VEGF-A [6] = settings: read-out: IC50 for VEGF-A; endothelial cell culture conditions; cited from earlier work
endothelial cells = tested on: endothelial cells; design: method as in PMID 15013002; settings: cited from earlier work
[7] = target: human recombinant VEGF receptor-2 (rhVEGFR-2) (human) (UniProt P35968); test: SPR; rhVEGFR-2 immobilised on an activated CM5 chip; RLYE at different concentrations flowed in HBS-EP (10 mM Hepes, 150 mM NaCl, 3 mM EDTA, 0.005% Tween-20) at 25 μl/min, 120 sec injection; Kd from a steady state binding model
Sequence of human recombinant VEGF receptor-2 (rhVEGFR-2) (human) (P35968 20-764): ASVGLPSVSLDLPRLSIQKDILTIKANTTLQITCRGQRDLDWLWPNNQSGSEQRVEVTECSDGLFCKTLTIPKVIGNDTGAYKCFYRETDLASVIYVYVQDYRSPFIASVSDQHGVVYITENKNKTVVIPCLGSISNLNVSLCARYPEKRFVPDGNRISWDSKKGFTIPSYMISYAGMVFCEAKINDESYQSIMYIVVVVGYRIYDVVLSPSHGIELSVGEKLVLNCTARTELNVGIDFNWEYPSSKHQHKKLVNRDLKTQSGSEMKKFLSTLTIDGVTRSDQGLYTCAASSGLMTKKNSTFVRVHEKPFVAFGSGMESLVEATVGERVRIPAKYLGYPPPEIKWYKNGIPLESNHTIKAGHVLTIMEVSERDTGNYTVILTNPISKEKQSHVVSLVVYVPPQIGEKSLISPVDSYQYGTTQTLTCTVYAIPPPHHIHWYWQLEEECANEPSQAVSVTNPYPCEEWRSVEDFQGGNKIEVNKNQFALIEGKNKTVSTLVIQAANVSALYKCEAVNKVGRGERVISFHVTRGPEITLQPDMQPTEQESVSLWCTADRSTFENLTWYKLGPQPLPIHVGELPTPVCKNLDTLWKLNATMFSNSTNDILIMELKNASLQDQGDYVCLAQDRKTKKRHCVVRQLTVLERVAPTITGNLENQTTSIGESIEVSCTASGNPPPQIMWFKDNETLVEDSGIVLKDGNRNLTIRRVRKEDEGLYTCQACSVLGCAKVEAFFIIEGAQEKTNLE

CC(C)C[C@H](NC(=O)[C@@H](N)CCCNC(=N)N)C(=O)N[C@@H](Cc1ccc(O)cc1)C(=O)N[C@@H](CCC(=O)O)C(=O)O [RLYE, Arg-Leu-Tyr-Glu] (H-RLYE-OH)
cytotoxicity against HUVECs (HUVECs [1]): did not induce any cytotoxicity
cytotoxic effect on cultured HCT116 cells (HCT116 cells): no cytotoxic effect
half-life in blood (half-life in blood): 1.2 h
half-life [2]: > 18 h

CCc1c2c(nc3ccc(OC(=O)N4CCC(N5CCCCC5)CC4)cc13)-c1cc3c(c(=O)n1C2)COC(=O)[C@]3(O)CC [CPT-11, irinotecan]
tumor growth in mice bearing HCT116 colon tumor (HCT116 tumors): significantly inhibited tumor growth

ramucirumab: fully humanized monoclonal antibody bound to the extracellular domain of VEGFR-2
IC50 (VEGFR-2): 1 to 2 nM

aflibercept: soluble decoy VEGFR-1
affinity to VEGF-A relative to bevacizumab (VEGF-A [3]): several hundred-fold greater

FITC-conjugated RLYE: fluorescein isothiocynate (FITC)-conjugated RLYE, purchased from Peptron (also: FITC conjugated, position not given here)
binding to the surface of control HUVECs (HUVECs [4]; 30 min on ice, flow cytometry): bound
blocking of binding to HUVECs by post-incubation with VEGF-A (HUVECs [4]; VEGF 100 ng/ml after the peptide): not
binding to HUVECs after pre-incubation with VEGF-A (HUVECs [4]; VEGF 100 ng/ml before the peptide): blocked
binding to the surface of HUVECs (confocal) (HUVECs [5]; FITC-conjugated RLYE 100 ng/ml): bound
binding to the surface of HUVECs after pretreatment with VEGF-A (confocal) (HUVECs [5]; VEGF-A 10 ng/ml 30 min, then FITC-conjugated RLYE 100 ng/ml): effectively blocked

bevacizumab: anti-VEGF antibody
IC50 (VEGF-A [6]): 0.15 nM

Lys-Leu-Tyr-Asp [KLYD, tetrapeptide derived from the kringle 5 of plasminogen]
inhibitory effect on endothelial cell proliferation (endothelial cells): potent inhibitory effect

RLYE [Arg-Leu-Tyr-Glu tetrapeptide (RLYE)]
Kd [7]: 9000 nM
